The test system of one series is AGS cells. The experiment in a line: Proliferation inhibitory activity on AGS tumor cell line containing KRAS G12D mutation (CellTiter-Glo, 72 hours). The format is cell-based. As to conditions: Homo sapiens. From the text: (§1) Test Example 1: Proliferation Inhibitory Activity on Ba/F3 KRAS-G12D, Ba/F3 KRAS-G12V Stably Transfected Cell Lines and AGS Tumor Cell Lines Containing KRAS G12D Mutations
(§2) To determine the proliferation inhibitory activity of the compounds in vitro on mouse pro-B cells Ba/F3 (Ba/F3 KRAS-G12D and Ba/F3 KRAS-G12V cells stably expressing KRAS G12D/V mutant proteins) and gastric cancer AGS cells expressing KRAS G12D mutant protein.
(§3) Cell sources. Ba/F3 KRAS-G12D and Ba/F3 KRAS-G12V were purchased from Kyinno Biotech (Beijing) Co., Ltd, Cat. No.: KC-1259 and KC-1261, respectively; AGS was purchased from Shanghai Bioleaf Biotech Co., Ltd.
(§4) Cells in the logarithmic growth phase were seeded in a 96-well plate (8000, 8000, 4000 cells/well, 90 μL/well for Ba/F3 KRAS-G12D, Ba/F3 KRAS-G12V, and AGS cells respectively), incubated at 37° C. for 1 day with 5% CO2, and then a gradient dilution of the test compound was added thereto (compounds 1 to 28 and comparative compounds). The details were as follows, the compound stock solution (10 mM) previously dissolved in DMSO was diluted to 10 gradient concentrations at a fold ratio (4 fold) and diluted to 10 fold of the target concentration in another 96-well plate with culture medium, and then 10 μL/well of the compound solution was added to the 96-well plate seeded with cells to reach the target concentration (10000, 2500, 625, 156, 39, 10, 2.5, 0.6, 0.15, 0.04 nM). Each concentration was provided with 3 duplicate wells and a blank control. After continued incubation at 37° C. and 5% CO2 for 72 hours, 50 μL of CellTiter-Glo*2.0 reagent (luciferase ATP bioluminescence detection reagent, purchased from Promega, Cat. No.: G9243) was added to each well, shaken for 2 minutes, and incubated at room temperature for 8 minutes, and then fluorescence luminescence intensity was detected (light collection time was 100 ms). The inhibitory rate of compounds with various concentrations on cell proliferation was calculated. Cell proliferation inhibition rate (%)=[(luminous intensitycontrol group containing cell culture medium for 72 hour−luminous intensitycompound group for 72 hour)/(luminous intensitycontrol group containing cell culture medium for 72 hours−luminous intensitycontrol group without cell culture medium for 72 hour)]×100%. GraphPad Prism 8.3 software was used to analyze the data, and nonlinear S-curve regression was used to fit the data to obtain a dose-effect curve, from which the IC50 value was calculated.

The next series deals with Ba/F3 KRAS-G12V cells (Homo sapiens, UniProt P01116, G12V, cells depend on it). Nature of the series: Proliferation inhibitory activity on Ba/F3 KRAS-G12V stably transfected cell line (CellTiter-Glo, 72 hours). In kind it is cell-based, mouse. As to conditions: read-out: Ba/F3 KRAS-G12V IC50.
Text: as §1, §2, §3, §4

Series [1] is described as follows: Body weight change of mice in HPAC xenograft model. The format is in vivo. As to conditions: 30 mg/kg intraperitoneally twice a day for 10 days, vs D0 weight, HPAC xenograft in BALB/c nude mice. The method, then:
Experimental scheme: BALB/c nude mice were subcutaneously inoculated with HPAC cells to establish a cell line xenograft tumor model. The test was divided into a 30 mg/kg group of compound 21, a 30 mg/kg group of comparative compound, and a vehicle group, with 5 mice in each group. The mice were administered intraperitoneally in an administration volume of 10 μL/g. The vehicle group was given an equal amount of vehicle (sulfobutyl-β-cyclodextrin sodium salt dissolved in 50 mM citric acid buffer, the mass-to-volume concentration of sulfobutyl-β-cyclodextrin sodium salt was 10%, and the pH value of the vehicle was 5.0), administered twice a day for 10 days. During the entire experiment, the body weight and tumor size of the mice were measured on days 4, 7, and 10 to observe whether toxic reactions occurred. Efficacy was evaluated based on relative tumor proliferation rate. Other compounds of the present disclosure (compounds 1 to 20 and 22 to 28) were tested with reference to compound 21. Formula for calculating weight change: weight change (%)=(weight/D0 weight−1)×100%.

The next series relates to HPAC cells. Nature of the series: In vivo efficacy in HPAC cell line xenograft tumor model. The conditions noted are these: 30 mg/kg intraperitoneally twice a day for 10 days, day 10 vs day 0, HPAC xenograft in BALB/c nude mice. On the procedure:
Test Example 2: In Vivo Efficacy of Test Compounds in HPAC Model
This experiment is used to evaluate the in vivo efficacy of compounds in the HPAC model.
Source of experimental animals: Beijing Vital River Laboratory Animal Technology Co., Ltd., certificate number: 20170011007990.
Animal modeling and random grouping: HPAC cells were cultured and expanded to 30 T175 cm^2 culture flasks. Cells were collected, resuspended in serum-free culture medium DMEM for counting, and added with matrix glue at a ratio of 1:1, and inoculated into the right anterior subcutaneous region of BALB/c Nude mice at 5×10^6 cells/0.1 mL. When the average tumor volume reached approximately 281 mm^3, mice were randomly divided into various experimental groups according to tumor size, with 5 mice per group. The day of grouping was defined as day 0, that is, DO.
Experimental scheme: BALB/c nude mice were subcutaneously inoculated with HPAC cells to establish a cell line xenograft tumor model. The test was divided into a 30 mg/kg group of compound 21, a 30 mg/kg group of comparative compound, and a vehicle group, with 5 mice in each group. […] During the entire experiment, the body weight and tumor size of the mice were measured on days 4, 7, and 10 to observe whether toxic reactions occurred. Efficacy was evaluated based on relative tumor proliferation rate. […]

The target of another series is Ba/F3 KRAS-G12D cells (Homo sapiens, UniProt P01116, G12D, cells depend on it). Nature of the series: Proliferation inhibitory activity on Ba/F3 KRAS-G12D stably transfected cell line (CellTiter-Glo, 72 hours). In kind it is cell-based, mouse. As to conditions: read-out: Ba/F3 KRAS-G12D IC50.
Text: as §1, §2, §3, §4

The structures appear in SMILES notation.

Ba/F3 KRAS-G12V cells, sequence (P01116 whole entry G12V): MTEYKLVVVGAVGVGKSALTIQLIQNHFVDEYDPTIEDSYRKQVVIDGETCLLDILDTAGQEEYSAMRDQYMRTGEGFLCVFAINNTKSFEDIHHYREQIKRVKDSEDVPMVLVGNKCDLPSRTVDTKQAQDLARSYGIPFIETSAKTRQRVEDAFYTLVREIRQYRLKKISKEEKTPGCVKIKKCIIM
Ba/F3 KRAS-G12D cells, sequence (P01116 whole entry G12D): as the sequence (P01116 whole entry G12V) above, with V12D counted along it

On to `C#Cc1c(F)ccc2cc(O)cc(-c3nc(Cl)c4c(N5C[C@H]6CC[C@@H](C5)N6)nc(OC[C@@]56CCCN5C[C@H](F)C6)nc4c3F)c12` [Compound 21, 4-(4-((1R,5S)-3,8-Diazabicyclo[3.2.1]octan-3-yl)-5-chloro-8-fluoro-2-(((2R,7aS)-2-fluorohexahydro-1H-pyrrolizin-7a-yl)methoxy)pyrido[4,3-d]pyrimidin-7-yl)-5-ethynyl-6-fluoronaphthalen-2-ol], for which it took 9 nM to reach half-maximal inhibition in the series on AGS cells (IC50). Also, the GI50 was 5000 to 10000 nM at Ba/F3 KRAS-G12V cells and 1 nM at Ba/F3 KRAS-G12D cells. In series [1], the “Weight change (%)” value is reported as −7.27%. In the series on HPAC cells, the “T/C % (relative tumor proliferation rate)” value is −64.96%.

`Oc1cc(-c2nc(Cl)c3c(N4C[C@H]5CC[C@@H](C4)N5)nc(OC[C@@]45CCCN4C[C@H](F)C5)nc3c2F)c2c(F)c(F)ccc2c1` [Compound 26, 4-(4-((1R,5S)-3,8-diazabicyclo[3.2.1]octan-3-yl)-5-chloro-8-fluoro-2-(((2R,7aS)-2-fluorohexahydro-1H-pyrrolizin-7a-yl)methoxy)pyrido[4,3-d]pyrimidin-7-yl)-5,6-difluoronaphthalen-2-ol] gave an IC50 in the series on AGS cells of 28 nM. Moreover, the GI50 at Ba/F3 KRAS-G12V cells was 5000 to 10000 nM; at Ba/F3 KRAS-G12D cells, 1.7 nM.

The values are drawn from patent US20240368192A1, “Nitrogen-Containing Heterocyclic Compound, and Preparation Method Therefor, Intermediate Thereof, and Application Thereof” (Shanghai Allist Pharmaceuticals Co., Ltd., priority 2021, published 2024).
